Source: ChEMBL document CHEMBL5036375, “Malaria Box-Inspired Discovery of N-Aminoalkyl-β-carboline-3-carboxamides, a Novel Orally Active Class of Antimalarials” (ACS Med Chem Lett, 2022)
The source made the active and inactive calls. The rule behind the calls is not given here.

Tests used:
Plasmodium falciparum [1] = test: Antimalarial activity against synchronized Plasmodium falciparum Dd2 (MRA-150) infected in human O-postive erythrocytes assessed as reduction in parasite growth after 72 hrs by SYBR green I staining based fluorescence assay; type: functional, organism-based
Plasmodium falciparum [2] = test: Antimalarial activity against synchronized Plasmodium falciparum Dd2 (MRA-150) infected in human O-postive erythrocytes in presence of IPP assessed as reduction in parasite growth at 5 uM measured after 72 hrs by SYBR green I staining based fluorescence assay relative to control; type: functional; parameters: scale not given: the % may be the effect or the level left
Escherichia coli = test: Antibacterial activity against Escherichia coli (BL21) assessed as bacterial growth after 18 hrs by g a cell density meter; type: functional
[3] = Volume of distribution in rat at 10 mg/kg , iv; type: ADME, organism-based; conditions: in vivo
[4] = Half life in CD-1 mouse liver microsomes after 60 mins by LC-MS analysis; type: ADME, Microsome
Plasmodium berghei [5] = test: Antimalarial activity against Plasmodium berghei ANKA expressing luciferase, PbGFP-Luccon infected in mouse assessed as reduction in parasitemia at 20 mg/kg, po measured after 4 days by luminescence assay; type: functional, organism-based; conditions: time 4.0 day
[6] = biological target: Voltage-gated inwardly rectifying potassium channel KCNH2 (Homo sapiens, UniProt Q12809); test: Inhibition of human ERG expressed in HEK-293 cells by patch clamp method; type: cell-based, HEK293
Sequence of Voltage-gated inwardly rectifying potassium channel KCNH2 (Q12809 whole entry): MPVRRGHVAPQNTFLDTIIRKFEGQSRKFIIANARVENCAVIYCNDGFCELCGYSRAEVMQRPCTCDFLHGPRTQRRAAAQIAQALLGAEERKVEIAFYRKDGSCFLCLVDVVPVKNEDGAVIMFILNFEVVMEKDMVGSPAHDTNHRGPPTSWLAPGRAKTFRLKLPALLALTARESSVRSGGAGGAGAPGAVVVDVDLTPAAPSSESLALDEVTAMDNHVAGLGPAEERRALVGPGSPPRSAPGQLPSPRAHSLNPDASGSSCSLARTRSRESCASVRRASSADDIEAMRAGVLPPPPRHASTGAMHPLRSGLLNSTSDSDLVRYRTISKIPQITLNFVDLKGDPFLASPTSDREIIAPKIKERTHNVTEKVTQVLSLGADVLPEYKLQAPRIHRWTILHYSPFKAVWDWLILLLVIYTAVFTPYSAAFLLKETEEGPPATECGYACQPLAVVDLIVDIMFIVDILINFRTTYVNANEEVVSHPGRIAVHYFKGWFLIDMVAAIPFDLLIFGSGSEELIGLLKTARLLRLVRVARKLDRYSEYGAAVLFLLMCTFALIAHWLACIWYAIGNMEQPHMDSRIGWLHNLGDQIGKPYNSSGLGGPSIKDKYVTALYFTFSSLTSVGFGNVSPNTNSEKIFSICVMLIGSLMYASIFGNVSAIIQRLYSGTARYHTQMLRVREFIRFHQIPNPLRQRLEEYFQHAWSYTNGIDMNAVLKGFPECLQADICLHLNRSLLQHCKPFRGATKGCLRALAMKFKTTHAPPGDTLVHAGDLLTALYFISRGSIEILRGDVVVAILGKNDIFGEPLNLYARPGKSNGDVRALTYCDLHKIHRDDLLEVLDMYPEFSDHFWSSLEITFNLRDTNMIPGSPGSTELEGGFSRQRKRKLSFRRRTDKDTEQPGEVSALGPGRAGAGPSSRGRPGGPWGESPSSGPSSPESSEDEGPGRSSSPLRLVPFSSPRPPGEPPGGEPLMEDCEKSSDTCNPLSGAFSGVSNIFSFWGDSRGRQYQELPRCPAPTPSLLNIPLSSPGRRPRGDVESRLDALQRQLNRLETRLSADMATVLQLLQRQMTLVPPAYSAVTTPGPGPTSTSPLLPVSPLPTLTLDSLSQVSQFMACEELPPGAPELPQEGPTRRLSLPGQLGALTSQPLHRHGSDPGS

[7] = Cmax in rat at 40 mg/kg, po; type: ADME, organism-based; parameters: route oral, dose 40 mg/kg; conditions: in vivo
[8] = Thermodynamic solubility of PBS at pH 7.4 by LC-MS analysis; type: physicochemical; conditions: read-out: Therm_solubility
[9] = Lipophilicity, logD of the compound between 1-octanol and PBS pH 7.4 at 10 mM by LC-MS analysis; type: physicochemical; conditions: 1-octanol/PBS
Plasmodium falciparum [10] = test: Antimalarial activity against synchronized Plasmodium falciparum Dd2 (MRA-150) infected in human O-postive erythrocytes in presence of IPP assessed as reduction in parasite growth at 2.5 uM measured after 72 hrs by SYBR green I staining based fluorescence assay relative to control; type: functional; parameters: scale not given: the % may be the effect or the level left
[11] = Toxicity in mouse infected with Plasmodium berghei ANKA assessed as ruffled fur at 40 mg/kg, po measured after 4 days; type: organism-based; conditions: in vivo, 96 h, time 4 day
Plasmodium falciparum [12] = test: Antimalarial activity against Plasmodium falciparum 4G infected in human O-postive erythrocytes measured after 72 hrs by SYBR green I staining based fluorescence assay; type: functional, organism-based
[13] = Toxicity in mouse infected with Plasmodium berghei ANKA assessed as behavioural changes at 40 mg/kg, po measured after 4 days; type: organism-based; conditions: in vivo, 96 h, time 4 day
HEK293 = test: Cytotoxicity against human HEK293 cells by resazurin based cell viability assay; type: functional
Plasmodium falciparum [14] = test: Antimalarial activity against Plasmodium falciparum 3D7 (MRA-102) incubated for 72 hrs by Lactate dehydrogenase activity; type: functional, organism-based; conditions: 3D7 MRA-102, 72 h
Plasmodium falciparum [15] = test: Antimalarial activity against Plasmodium falciparum 3D7A incubated for 48 hrs by [3H]-hypoxanthine incorporation assay; type: functional, organism-based; conditions: 3D7
Plasmodium falciparum [16] = test: Antimalarial activity against KAE609 resistant Plasmodium falciparum Dd2 infected in human O-postive erythrocytes measured after 72 hrs by SYBR green I staining based fluorescence assay; type: functional, organism-based; conditions: Dd2, 72 h
Plasmodium falciparum [17] = test: Antimalarial activity against Plasmodium falciparum 3D7 (MRA-102) infected in human O-postive erythrocytes measured after 72 hrs by SYBR green I staining based fluorescence assay; type: functional, organism-based; conditions: 3D7 MRA-102, 72 h
[18] = Toxicity in mouse infected with Plasmodium berghei ANKA assessed as gait at 40 mg/kg, po measured after 4 days; type: organism-based; conditions: in vivo, 96 h, time 4 day
Plasmodium berghei [19] = test: Antimalarial activity against Plasmodium berghei ANKA expressing luciferase, PbGFP-Luccon infected in mouse assessed as reduction in parasitemia at 40 mg/kg, po measured after 4 days by luminescence assay; type: functional, organism-based; conditions: time 4.0 day
[20] = Toxicity in mouse infected with Plasmodium berghei ANKA assessed as lethargy at 40 mg/kg, po measured after 4 days; type: organism-based; conditions: in vivo, 96 h, time 4 day
[21] = Half life in rat plasma 40 mg/kg, po; type: ADME, organism-based
Hepatocyte = test: Cytotoxicity against human hepatocytes measured after 96 hrs by DAPI staining based fluroscence assay; type: functional
Plasmodium falciparum [22] = test: Antimalarial activity against Plasmodium falciparum W2 infected in human O-postive erythrocytes measured after 72 hrs by SYBR green I staining based fluorescence assay; type: functional, organism-based; conditions: W2, 72 h
[23] = Oral bioavailability in rat at 40 mg/kg; type: ADME, organism-based; conditions: in vivo
[24] = Stability in CD-1 mouse plasma at 1 hour by LC-MS analysis a; type: ADME, cell-free; conditions: read-out: Stability
[25] = Toxicity in mouse infected with Plasmodium berghei ANKA assessed as weight loss at 40 mg/kg, po measured after 4 days; type: organism-based; conditions: in vivo, 96 h, time 4 day

With CNCCNC(=O)c1cc2c([nH]c3ccccc32)c(-c2ccccc2)n1 the EC50 (Plasmodium falciparum [1]) was 2500 nM.

CNCCCNC(=O)c1cc2c([nH]c3c(C)cccc32)c(-c2ccc(Cl)c(Cl)c2)n1 gave an EC50 (Plasmodium falciparum [1]) of 217 nM.

Molecule CNCCNC(=O)[C@@H]1Cc2c([nH]c3c(C)cccc23)[C@@H](c2ccc(Cl)cc2Cl)N1 has an EC50 (Plasmodium falciparum [1]) of 1950 nM and an Activity (Plasmodium falciparum [2]) of 50%.

CNCCNC(=O)[C@H]1Cc2c([nH]c3c(C)cccc23)[C@H](c2ccc(Cl)cc2Cl)N1 showed an EC50 (Plasmodium falciparum [1]) of 3690 nM.

For CNCCNC(=O)c1cc2c([nH]c3c(C)cccc32)c(-c2ccc(Cl)cc2)n1, the EC50 (Plasmodium falciparum [1]) was 274 nM.

For Cc1cccc2c1[nH]c1c(-c3ccc(Cl)c(Cl)c3)nc(C(=O)NCCO)cc12, the EC50 (Plasmodium falciparum [1]) was 3270 nM.

In the case of CNCCNC(=O)c1cc2c([nH]c3ccccc32)c(-c2cccc(Cl)c2)n1, the EC50 (Plasmodium falciparum [1]) is reported as 641 nM.

In the case of CNCCNC(=O)c1cc2c([nH]c3c(C)cccc32)c(-c2ccc(Cl)cc2Cl)n1, the EC50 (Plasmodium falciparum [1]) is reported as 583 nM.

Cc1cccc2c1[nH]c1c(-c3ccc(Cl)c(Cl)c3)nc(C(=O)O)cc12 showed an EC50 (Plasmodium falciparum [1]) of over 10000 nM.

CNC(=O)c1cc2c([nH]c3c(C)cccc32)c(-c2ccc(Cl)c(Cl)c2)n1 showed an EC50 (Plasmodium falciparum [1]) of over 10000 nM.

Molecule CCCCNC(=O)c1cc2c([nH]c3c(C)cccc32)c(-c2ccc(Cl)c(Cl)c2)n1 has an EC50 (Plasmodium falciparum [1]) of 1020 nM.

CNCCNC(=O)c1cc2c([nH]c3c(C)cccc32)c(-c2ccc(Cl)c(Cl)c2)n1.Cl showed an MIC (Escherichia coli) of over 250 µM, a Vd [3] of 21.8 L/kg and a half-life [4] of 1.83 h. The EC50 (Plasmodium falciparum [1]) was 108 nM, the Activity (Plasmodium berghei [5]) was “inactive” and the IC50 [6] was 510 nM. The Cmax [7] was 800 nM, the solubility thermodynamic [8] was 9.5 µM and the logD at 10000 µM [9] was 3.3. For the same molecule, the Activity (Plasmodium falciparum [10]) was 0%, the Activity [11] was “Non-Toxic” and the EC50 (Plasmodium falciparum [12]) was 110 nM. For the same molecule, the Activity [13] was “Non-Toxic”, the CC50 (HEK293) was 32000 nM and the IC50 (Plasmodium falciparum [14]) was 117 nM. The IC50 (Plasmodium falciparum [15]) was 70 nM, the EC50 (Plasmodium falciparum [16]) was 101 nM and the EC50 (Plasmodium falciparum [17]) was 53 nM. For the same molecule, the Activity [18] was “Non-Toxic”, the Activity (Plasmodium berghei [19]) was “Active” and the Activity [20] was “Non-Toxic”. The half-life [21] was 8 h, the CC50 (Hepatocyte) was 8500 nM and the EC50 (Plasmodium falciparum [22]) was 100 nM. For the same molecule, the bioavailability [23] was 40%, the remaining at 1 h [24] was 100% and the Activity [25] was “Non-Toxic”.

Molecule CNCCNC(=O)c1cc2c([nH]c3c(C)cccc32)c(-c2cccc(Cl)c2)n1 has an EC50 (Plasmodium falciparum [1]) of 342 nM.

Molecule O=C(O)[C@@H]1Cc2c([nH]c3ccccc23)[C@@H](c2ccc(Cl)cc2Cl)N1 has an Activity (Plasmodium falciparum [10]) of 100%.

CNCCNC(=O)c1cc2c([nH]c3ccccc32)c(-c2ccc(Cl)c(Cl)c2)n1 showed an EC50 (Plasmodium falciparum [1]) of 277 nM.

CNCCNC(=O)[C@@H]1Cc2c([nH]c3c(C)cccc23)[C@H](c2ccc(Cl)cc2Cl)N1 gave an EC50 (Plasmodium falciparum [1]) of 1300 nM.

Work on Cc1cccc2c1[nH]c1c(-c3ccc(Cl)c(Cl)c3)nc(C(=O)NCCCN(C)C)cc12 yielded an EC50 (Plasmodium falciparum [1]) of 240 nM.

Cc1cccc2c1[nH]c1c(-c3ccc(Cl)c(Cl)c3)nc(C(=O)NCCN)cc12 gave an EC50 (Plasmodium falciparum [1]) of 263 nM.

Molecule CNCCNC(=O)c1cc2c([nH]c3c(C)cccc32)c(-c2ccccc2)n1 has an EC50 (Plasmodium falciparum [1]) of 4000 nM.

CNCCNC(=O)[C@H]1Cc2c([nH]c3c(C)cccc23)[C@@H](c2ccc(Cl)cc2Cl)N1 showed an EC50 (Plasmodium falciparum [1]) of 1430 nM.

Work on Cc1cccc2c1[nH]c1c(-c3ccc(Cl)c(Cl)c3)nc(C(=O)NCCN(C)C)cc12 yielded an EC50 (Plasmodium falciparum [1]) of 264 nM.

Cc1cccc2c1[nH]c1c(-c3ccc(Cl)c(Cl)c3)nc(C(=O)NCCCN)cc12 gave an EC50 (Plasmodium falciparum [1]) of 726 nM.

For COC(=O)c1cc2c([nH]c3c(C)cccc32)c(-c2ccc(Cl)c(Cl)c2)n1, the EC50 (Plasmodium falciparum [1]) was over 10000 nM.

For CCN(CC)CCCC(C)Nc1ccnc2cc(Cl)ccc12 (configuration not stated), the Activity (Plasmodium berghei [19]) was “Active”.

CNCCNC(=O)c1cc2c([nH]c3ccccc32)c(-c2ccc(Cl)cc2)n1 gave an EC50 (Plasmodium falciparum [1]) of 496 nM.
